Where only a bound is given, the exact number is not on record here.

Sequence of Ephrin type-A receptor 4 (Q03137 whole entry): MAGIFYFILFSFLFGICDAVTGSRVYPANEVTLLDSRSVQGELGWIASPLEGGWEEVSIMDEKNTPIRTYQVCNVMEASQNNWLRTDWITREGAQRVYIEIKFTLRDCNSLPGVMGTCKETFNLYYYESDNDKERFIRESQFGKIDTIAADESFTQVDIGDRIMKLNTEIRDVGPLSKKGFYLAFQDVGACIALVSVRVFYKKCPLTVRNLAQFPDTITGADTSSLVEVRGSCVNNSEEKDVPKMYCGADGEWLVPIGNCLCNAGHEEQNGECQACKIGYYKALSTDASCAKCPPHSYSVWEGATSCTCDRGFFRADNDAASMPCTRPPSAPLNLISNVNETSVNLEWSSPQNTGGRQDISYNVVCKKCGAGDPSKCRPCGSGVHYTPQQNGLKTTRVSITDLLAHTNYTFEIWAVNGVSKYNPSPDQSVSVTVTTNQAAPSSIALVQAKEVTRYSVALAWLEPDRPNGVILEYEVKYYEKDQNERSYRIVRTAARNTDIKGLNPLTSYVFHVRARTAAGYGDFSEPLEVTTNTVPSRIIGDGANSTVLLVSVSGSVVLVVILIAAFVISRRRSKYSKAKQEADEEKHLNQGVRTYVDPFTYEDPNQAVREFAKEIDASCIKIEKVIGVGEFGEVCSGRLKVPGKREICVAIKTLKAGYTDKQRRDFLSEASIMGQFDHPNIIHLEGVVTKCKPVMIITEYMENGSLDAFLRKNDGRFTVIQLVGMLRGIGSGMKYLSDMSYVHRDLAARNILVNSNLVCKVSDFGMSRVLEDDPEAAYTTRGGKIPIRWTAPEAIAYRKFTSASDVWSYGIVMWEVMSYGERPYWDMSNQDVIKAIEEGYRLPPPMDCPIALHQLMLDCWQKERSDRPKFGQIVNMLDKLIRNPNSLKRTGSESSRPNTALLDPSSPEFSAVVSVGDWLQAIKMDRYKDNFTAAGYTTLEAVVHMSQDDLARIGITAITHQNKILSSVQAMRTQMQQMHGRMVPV

Target in the first assay: not listed separately
Kind of assay: PLAP enzyme activity inhibition – biochemical, colorimetric, counter-screen, dose response (AID 779).
As usually defined, the IC50 is the concentration needed to halve the response being measured. Consider `O=C1/C(=C\c2nc3ccccc3[nH]2)SC(=S)N1c1ccc(F)cc1` [SMR000163732], for which the half-inhibitory concentration (IC50) was greater than 50 µM.

Another assay has as its target Ephrin type-A receptor 4 (Mus musculus, UniProt Q03137). The description is as above.
In turn, `CCCCN(CCCC)c1nc2ccccc2nc1C(C#N)C(=O)OCC` (stereo unspecified) [(2Z)-2-cyano-2-[3-(dibutylamino)-1H-quinoxalin-2-ylidene]acetic acid ethyl ester] registered an IC50 greater than 50 µM.

Molecule `CC(CC(=O)c1ccccc1)N=Nc1nc2ccccc2s1` (stereo unspecified) [(E)-3-(1,3-benzothiazol-2-ylhydrazo)-1-phenyl-2-buten-1-one] gave an IC50 greater than 50 µM.

`CCCCOP(=O)(OCCCC)C(C#N)C(C)=O` (stereo unspecified) [(Z)-2-dibutoxyphosphoryl-3-hydroxy-2-butenenitrile] had an IC50 greater than 50 µM.

For `Cc1ccc(Cl)cc1-n1c(C)nc(Cc2ccc([N+](=O)[O-])cc2)c1O` [MLS000519000], the IC50 is greater than 50 µM.

With `CCN1C(=O)C(C=NN=Cc2ccccc2)c2ccc(C3=NNC(=O)CC3)cc21` (stereo unspecified) [benzaldehyde {[1-ethyl-2-oxo-6-(6-oxo-1,4,5,6-tetrahydro-3-pyridazinyl)-1,2-dihydro-3H-indol-3-ylidene]methyl}hydrazone], the concentration for half-maximal inhibition (IC50) is greater than 50 µM.

The values above are taken from BindingDB's records for doi:10.7270/Q2JD4V5T (Burnham Center for Chemical Genomics, 2008).
